Key:
Format in all cases: cell-based
[1] = tested on: Normal Human Dermal Fibroblast (NHDF); assay: fibroblast to myofibroblast differentiation of NHDF (markers αSMA, PI16, ACTC1 by RT-qPCR, αSMA positive cells)
Protocol: (§1) NHDF, isolated from human explants, were purchased from Promocell. NHDF were cultivated in DMEM-F12 (Invitrogen), supplemented with 10% FCS (Invitrogen, 5 μg/mL of insulin and 1 ng/mL of b-FGF (PromoKine)).
(§2) For experiments, cells were deprived of insulin and b-FGF during 48 hours. Then, the cells were cultivated on collagen coated culture plates in DMEM-F12, supplemented with 10% FCS, 10 ng/mL of TGF-β1 (Promocell) for 4 days. Four points were tested in order to appreciate the effect of exudate on fibroblast differentiation: untreated cells (T−E−), fibroblasts treated with TGF-β1 (T+E−), cells treated with exudate (T−E+) and finally fibroblasts treated with TGF-β1 and exudate at the same time (T+E+).
The efficiency of fibroblast differentiation was estimated by analyzing the expression of the myofibroblast marker alpha smooth muscle actin (αSMA).
(§3) After four days of experiment, treated fibroblasts were lysed with TRIzol Reagent (Invitrogen) and stored at −80° C. Then RNA was purified using chloroform and precipitated by isopropanol. Total RNA was quantified on the NanoDrop 2000c Spectrophotometer (Thermo Scientific). Reverse transcription of 500 ng total RNA to cDNA was done with oligot dT (Invitrogen) using SuperScript III RT (Invitrogen) and RNAse OUT (Invitrogen). The cDNA was store at −20° C.
(§4) Quantitative real-time PCR (RT-qPCR) was done using 5 μL of 1:20 diluted cDNA on the LightCycler480 system (Roche) using Maxima SYBR Green qPCR Master Mix (Fermentas). Forward and reverse primers for αSMA were designed by Eurofins (MWG, αSMA forward: […] (SEQ ID NO:9), αSMA reverse: […] (SEQ ID NO:10)) and a 100 μM stock was stored at −20° C. Forward and reverse primer pairs were used for each RT-qPCR reaction. The cycling conditions were as follows: an initial 95° C. for 10 minutes, followed by 45 cycles of 95° C. for 15 sec, 58° C. for 30 sec, 72° C. for 20 sec. LightCycler 480 SW 1.5 was used to evaluate the TM curves, to determine the Cp and to approximate the relative concentration for each amplification reaction.
Cells grown in collagen coated culture dishes, and treated as previously described, were fixed with 4% paraformaldehyde (PFA) in PBS for 15 minutes and permeabilized with 2.5% Triton X-100 (Euromedex, 2000-B) in PBS for 3 minutes. After saturation with 5% BSA in PBS, cells were stained for α-SMA (Abcam, ab5694) and for DNA (DAPI). As secondary antibody, CyTM3 conjugated anti rabbit (GE Healthcare, PA43004) was used. […] To estimate the percentage of fibroblast differentiation due to the different treatments, the total number of cells per field was determined by the DAPI, and myofibroblasts, differentiated fibroblasts, were counted using the α-SMA staining. […]

[2] = tested on: Normal Human Dermal Fibroblast (NHDF); assay: transcription factor mRNA levels in treated NHDF by RT-qPCR; conditions: Gant 61
Protocol: FIG. 6: Graphic representation of the TCF4 (a), EGR2 (b), SOX9 (c), STAT4 (d), FOXS1 (e), PPARG (f), MAF (g), MEOX2 (h), and SIX2 (i) mRNA levels after NHDF (donor A) treatment for 48 h (light grey) or 72 h (dark grey) either with mock siRNA or siRNA directed against different TF mRNA (SOX9, EGR2, TCF4, or FOXS1) and concomitantly treated with TGF-β. For all graphs, the mock siRNA treated with TGF-β (T+E) condition was set to 100% for each time of treatment (48 h and 72 h).
FIG. 10: Graphic representation of the αSMA, GLI1, SOX9 and MAF mRNA levels assessed by RT-qPCR of NHDFs treated by Gant 61.
as §3, §4

[3] = tested on: Normal Human Dermal Fibroblast (NHDF); assay: ex vivo model of chronic wounds: NHDF differentiation in presence of chronic wound exudate; conditions: TGFβ, exudate and Am580 versus same condition without Am580
Protocol: as §1
To collect exudates, two patients with mixed ulcers were recruited. For patient selection, it was decided to exclude any other comorbidity factor potentially involved in wound etiology: diabetes, peripheral arterial diseases, malnutrition. Exudates were collected from negative pressure therapy. All the exudates were centrifuged at 1,500×g for 3 minutes to remove cell debris. The supernatant was filtered and stored at −80° C. until use. Aliquots were used to determine protein concentration according to BCA method (Sigma).
as §2
For the chronic or non-healing wound model, chronic wound exudates were added to cell cultures (500 μg/mL of total proteins of exudate). […]

SMILES | differentiation shown by α-SMA mRNA ([1]; Gant 61 4 μM) | MAF mRNA [2] | SOX9 mRNA [2] | expression of GLI1 (mRNA) [2] | differentiation followed with αSMA mRNA ([1]; Am580 5 nM in presence of TGFβ) | differentiation followed with ACTC1 mRNA ([1]; Am580 in presence of TGFβ) | differentiation followed with PI16 mRNA ([1]; Am580 in presence of TGFβ) | PI16 mRNA [3] | αSMA mRNA [3]
CN(C)c1ccccc1CN1CCCN(Cc2ccccc2N(C)C)C1c1ccncc1 [Gant 61] | upregulation | decrease | increase | upregulate |  |  |  |  | 
CC1(C)CCC(C)(C)c2cc(C(=O)Nc3ccc(C(=O)O)cc3)ccc21 [Am580, 4-[(5,6,7,8-Tetrahydro-5,5,8,8-tetramethyl-2-naphthalenyl)carboxamido]benzoic acid] |  |  |  |  | increase differentiation | increase differentiation | increase differentiation | increase | increase
